Measurements from the Deep4Chem optical property database.
“And” between values parts separate entries of the source, which are not always exact repeats. Identical values can stand only once.

Assay: solvent given as SMILES

CC1=CC(C)=[N+]2C1=C(c1c(-c3ccccn3)nc3ccccn13)c1c(C)cc(C)n1[B-]2(F)F
absorption maximum (in ClCCl): 518 nm

CC(=O)Nc1ccc(S(=O)(=O)O)c(/N=N/c2c(O)c3ccccc3n(C)c2=O)c1
absorption maximum (in C1CCOC1): 435 nm | absorption maximum (in CC(C)=O): 425 nm | absorption maximum (in CCOC(C)=O): 434 nm | absorption maximum (in CO): 423 nm | absorption maximum (in CS(C)=O): 428 nm | absorption maximum (in Cc1ccccc1): 437 nm | absorption maximum (in ClCCl): 435 nm | absorption maximum (in O): 417 nm

CC(C)(C)c1ccc(Oc2cc3c4c(cc(Oc5ccc(C(C)(C)C)cc5)c5c6c(Oc7ccc(C(C)(C)C)cc7)cc7c8c(cc(Oc9ccc(C(C)(C)C)cc9)c(c2c45)c86)C(=O)N(c2ccccc2)C7=O)C(=O)N(c2ccccc2)C3=O)cc1
absorption maximum (in ClC(Cl)Cl): 586 nm

N#Cc1ncc(-c2c3ccccc3c(-c3cnc(C#N)nc3)c3ccccc23)cn1
absorption maximum (in CCO): 395 nm | absorption maximum (in ClCCl): 397 nm

COc1ccc(-n2c3ccccc3c3cc(/C=C/C(=C(C#N)C#N)c4ccccc4)ccc32)cc1
absorption maximum (in C1CCOC1): 448 nm | absorption maximum (in CC#N): 444 nm | absorption maximum (in CC(C)=O): 445 nm | absorption maximum (in CCOC(C)=O): 443 nm | absorption maximum (in CO): 449 nm | absorption maximum (in CS(C)=O): 454 nm | absorption maximum (in Cc1ccccc1): 450 nm | absorption maximum (in ClC(Cl)Cl): 459 nm

Cc1cc(C2=C(c3c(C)sc(-c4ccc(-c5nc(-c6ccccc6)c(-c6ccccc6)[nH]5)cc4)c3C)C(F)(F)C(F)(F)C2(F)F)c(C)s1
absorption maximum (in C1CCOC1): 336 nm

COc1cn2cc(-c3ccc(C#N)cc3)[n-][n+]2c1
absorption maximum (in ClCCl): 378 nm

N#Cc1c(N2CCCCC2)cc(-c2cccc3ccccc23)c2c1-c1ccccc1C2=O
absorption maximum (in C1CCOC1): 390 nm

c1ccc(N(c2ccccc2)c2ccc(-c3cccc4nc5ccccc5cc34)cc2)cc1
absorption maximum (in C1CCOC1): 391 nm | absorption maximum (in CC#N): 390 nm | absorption maximum (in CC(C)OC(C)C): 389 nm | absorption maximum (in CCCCCC): 386 nm | absorption maximum (in CCCCOCCCC): 390 nm | absorption maximum (in CCN(CC)CC): 389 nm | absorption maximum (in CCOC(C)=O): 390 nm | absorption maximum (in CCOCC): 386 nm | absorption maximum (in CN(C)C=O): 390 nm | absorption maximum (in ClCCl): 396 nm

CC(C)(C)c1ccc2c(c1)c1cc(C(C)(C)C)ccc1n2-c1ccc(N(c2ccc(-c3ccc4c(c3)C(C)(C)c3cc(-c5ccc(N(c6ccc(-n7c8ccc(C(C)(C)C)cc8c8cc(C(C)(C)C)ccc87)cc6)c6ccc(-n7c8ccc(C(C)(C)C)cc8c8cc(C(C)(C)C)ccc87)cc6)cc5)ccc3-4)cc2)c2ccc(-n3c4ccc(C(C)(C)C)cc4c4cc(C(C)(C)C)ccc43)cc2)cc1
absorption maximum (in ClCCl): 373 nm

BrC1=CN2C[n+]3cc(Br)cc(Br)c3N=C2C(Br)=C1
absorption maximum (in CS(C)=O): 449 nm

CC1=CC(C)=[N+]2C1=C(c1ccc(O)cc1)c1c(C)cc(/C=C/C=C3/N(C)c4ccccc4C3(C)C)n1[B-]2(F)F
absorption maximum (in O): 650 nm

N#CC1=CC(Br)=CC(C#N)=P1(c1ccccc1)c1ccccc1
absorption maximum (in ClC(Cl)Cl): 482 nm

Cc1cccc(C)c1Nc1ccc(/C=C/c2cccnc2)cc1
absorption maximum (in CC#N): 351 nm | absorption maximum (in CCCCCC): 346 nm

N#Cc1c(N2CCCC2)cc(-c2ccccc2)c2c1C(=O)c1ccccc1-2
absorption maximum (in C1CCOC1): 358 nm

Cc1cc(C)cc(NC(=O)c2sc(Br)nc2C)c1
absorption maximum (in C1CCOC1): 293.4 nm | absorption maximum (in CC#N): 285 nm | absorption maximum (in CCCCCC): 280.5 nm | absorption maximum (in CCOC(C)=O): 282.5 nm | absorption maximum (in CN(C)C=O): 285.3 nm | absorption maximum (in CO): 271.5 nm | absorption maximum (in CS(C)=O): 283.1 nm | absorption maximum (in ClC(Cl)Cl): 278 nm

CN1/C(=C/C=C(/C=C/C2=[N+](C)c3ccccc3C2(C)C)c2ccc(C(F)(F)F)cc2)C(C)(C)c2ccccc21
absorption maximum (in CCO): 637 nm | absorption maximum (in CO): 634 nm | absorption maximum (in CS(C)=O): 643 nm | absorption maximum (in O): 632 nm

CCOC(=O)CN1C(=O)C2=C(c3ccc(N4CCCCC4)cc3)N(CC(=O)OCC)C(=O)C2=C1c1ccc(N2CCCCC2)cc1
absorption maximum (in CC#N): 523 nm | absorption maximum (in CS(C)=O): 540 nm | absorption maximum (in Cc1ccccc1): 520 nm

F[B-]1(F)n2c(-c3ccccc3)c3ccc4ccccc4c3c2N=C2c3c(ccc4ccccc34)C(c3ccccc3)=[N+]21
absorption maximum (in ClCCl): 737 nm

O=C1Nc2ccccc2/C1=C/C(=O)c1ccc(Cl)cc1
absorption maximum (in C1CCCCC1): 335 nm | absorption maximum (in C1COCCO1): 335 nm | absorption maximum (in CC#N): 332 nm | absorption maximum (in CC(C)(C)O): 339 nm | absorption maximum (in CC(C)O): 339 nm | absorption maximum (in CCCCCC): 334 nm | absorption maximum (in CCCCO): 339 nm | absorption maximum (in CCOC(C)=O): 335 nm | absorption maximum (in CN(C)C=O): 337 nm | absorption maximum (in CO): 340 nm | absorption maximum (in ClCCl): 338 nm | absorption maximum (in O): 341 nm

N#Cc1cccc(-c2pc3ccccc3s2)c1 (stereo not given)
absorption maximum (in CC#N): 324 nm

Clc1nc(Nc2ccccc2)nc(Nc2ccc3cc4ccccc4cc3c2)n1
absorption maximum (in C1COCCO1): 398 nm | absorption maximum (in CC#N): 397 nm | absorption maximum (in CCCCOCCCC): 398 nm | absorption maximum (in CCOC(C)=O): 396 nm

c1ccc(N2N=C(c3cccc4ccccc34)CC2c2ccc3ccc4cccc5ccc2c3c45)cc1 (stereo not given)
absorption maximum (in ClCCl): 391 nm

F[B-]1(F)Oc2ccccc2-c2c3c(c4c([n+]21)CCc1ccccc1-4)CCc1ccccc1-3
absorption maximum (in ClCCl): 347 nm

CC(C)c1ccc2ccc3cccc4ccc1c2c34
absorption maximum (in CCCCCC): 338 nm | absorption maximum (in CO): 337 nm | absorption maximum (in ClCCl): 340 nm

Oc1ccc2ccccc2c1/C=N/c1cc2ccccc2cc1/N=C/c1c(O)ccc2ccccc12
absorption maximum (in CC#N): 474 nm

CC1=[N+]2C(=C(c3ccccc3)c3c4c(c(C)n3[B-]2(F)F)CCc2ccccc2-4)C2=C1CCc1ccccc12
absorption maximum (in CC#N): 565 nm

c1ccncc1
absorption maximum (in CC1CCCCC1): 252 nm | absorption maximum (in ClC(Cl)Cl): 253 nm | absorption maximum (in O): 253 nm

Cc1cc(C)n2c1C=C1c3ccccc3C(c3c[nH]c4ccccc34)=[N+]1[B-]2(F)F
absorption maximum (in C1CCOC1): 583 nm | absorption maximum (in CC#N): 575 nm | absorption maximum (in CCCCCC): 580 nm | absorption maximum (in CO): 579 nm | absorption maximum (in Cc1ccccc1): 587 nm | absorption maximum (in ClCCl): 581 nm

N#Cc1c(/C=C/c2ccc(N(c3ccccc3)c3ccccc3)cc2)cc(-c2cccs2)cc1N1CCCCC1
absorption maximum (in CS(C)=O): 404 nm

c1ccc(-c2nc(-c3ccccc3)nc(-c3ccc(-n4c5ccccc5c5ccc6c(c7ccccc7n6-c6ccccc6)c54)cc3)n2)cc1
absorption maximum (in Cc1ccccc1): 360 nm

CCCCn1c2ccccc2c2ccc(C#Cc3ccc4ccc5cccc6ccc3c4c56)cc21
absorption maximum (in ClCCl): 404 nm

O=C(Cc1ccccc1)OCc1ccc2c3cccc4cccc(c5cccc1c52)c43
absorption maximum (in CCO): 438 nm

CCOC(=O)c1c2c3c(ccc(OC)c3c3cc4ccccc4cc13)N(C)C2=O
absorption maximum (in CC#N): 406 nm

O=C(N/N=C/c1ccccc1O)c1ccccc1O
absorption maximum (in C1CCOC1): 334 nm | absorption maximum (in CC#N): 335 nm | absorption maximum (in CC(C)=O): 331 nm | absorption maximum (in CCO): 400 nm | absorption maximum (in CN(C)C=O): 412 nm | absorption maximum (in CS(C)=O): 385 nm | absorption maximum (in ClCCl): 335 nm

Clc1cnc2nn3ccccc3c2n1
absorption maximum (in C1CCOC1): 404 nm

CCOC(=O)c1c(-c2cc3ccccc3oc2=O)nn(-c2ccc(Br)cc2)c1C(=O)OCC
absorption maximum (in ClCCl): 323 nm

COc1ccc(O)c(C=O)c1
absorption maximum (in CO): 359 nm | absorption maximum (in ClC(Cl)Cl): 364 nm

Cc1cc(O)c(C(=O)/C=C/c2ccccc2Cl)c(=O)o1
absorption maximum (in CC#N): 353 nm | absorption maximum (in ClCCl): 355 nm

COc1ccc(-c2cc(/C=C/c3ccc(N(c4ccccc4)c4ccccc4)cc3)c(C#N)c(N3CCCCC3)c2)cc1
absorption maximum (in CS(C)=O): 398 nm

COc1ccc(-c2ccc3c(c2)c2cc(-c4ccc(OC)cc4)ccc2n3-c2ccc(C(=O)c3ccc4sc5ccccc5c4c3)cc2)cc1
absorption maximum (in Cc1ccccc1): 366 nm

F[B-]1(F)n2c(cc3c4ccccc4oc32)C(c2ccccc2)=C2C=c3c(oc4ccccc34)=[N+]21
absorption maximum (in C1CCCCC1): 586 nm | absorption maximum (in CCOC(C)=O): 581 nm | absorption maximum (in CO): 579 nm

Oc1c(-c2cccs2)cccc1-c1nc2ccccc2s1
absorption maximum (in ClCCl): 356 nm | absorption maximum (in O): 346 nm

COc1ccc(-c2c(-c3ccc(OC)cc3)c3c4c(cccc4c2-c2ccccc2)C(=O)c2ccccc2-3)cc1
absorption maximum (in CC#N): 402 nm | absorption maximum (in CO): 407 nm

COc1cc2c(cc1OC)C1=C3C(=O)N4C=Cc5cc(OC)c(OC)cc5C4=C3C(=O)N1C=C2
absorption maximum (in CN(C)C=O): 593 nm | absorption maximum (in ClC(Cl)Cl): 593 nm

CC1(C)c2ccccc2-c2ccc(N(c3ccccc3)c3ccc4c(c3)C(C)(C)c3cc(-c5cc6ccccc6c6c5oc5ccccc56)ccc3-4)cc21
absorption maximum (in C1CCOC1): 382 nm

F[B-]1(F)n2c(-c3ccccc3)cnc2-c2cccc[n+]21
absorption maximum (in C1CCCCC1): 412 nm | absorption maximum (in C1CCOC1): 394 nm | absorption maximum (in C1COCCO1): 394 nm | absorption maximum (in CC#N): 384 nm | absorption maximum (in CCCCCC): 412 nm | absorption maximum (in CO): 382 nm | absorption maximum (in ClC(Cl)Cl): 369 nm

COc1ccc(C2=N/C(=C\c3ccc(C#N)cc3)C(=O)O2)cc1OC
absorption maximum (in C1COCCO1): 393 nm

COc1cc(OC)c2c(c1)c1cc3oc(=O)cc(C)c3cc1c1cc(OC)cc(OC)c12
absorption maximum (in ClC(Cl)Cl): 390 nm

O=C1OC(=O)c2ccc(N(c3ccccc3)c3c4ccccc4cc4ccccc34)c3cccc1c23
absorption maximum (in C1CCOC1): 450 nm | absorption maximum (in CCCCCC): 440 nm | absorption maximum (in ClCCl): 462 nm | absorption maximum (in c1ccccc1): 450 nm

CCN(CC)c1ccc2c(c1)oc(=O)c1cc3cnn(-c4ccccc4)c3nc12
absorption maximum (in ClCCl): 379 nm

CCCC1(CCC)c2cc(-c3ccco3)ccc2-c2ccc(-c3ccco3)cc21
absorption maximum (in C1CCCCC1): 364 nm

CC(C)(C)c1ccc(-c2c(-c3ccc4c5ccccc5n(-c5ccccc5)c4c3)c(C#N)c(-c3ccc4c5ccccc5n(-c5ccccc5)c4c3)c(-c3ccc(C(C)(C)C)cc3)c2-c2ccc(C(C)(C)C)cc2)cc1
absorption maximum (in C1CCOC1): 345 nm

F[B-]1(F)n2c(-c3cccs3)cc(-c3cccs3)c2N=C2C(c3cccs3)=CC(c3cccs3)=[N+]21
absorption maximum (in C1CCOC1): 740 nm | absorption maximum (in CC#N): 733 nm | absorption maximum (in CS(C)=O): 752 nm | absorption maximum (in Cc1ccccc1): 743 nm | absorption maximum (in ClCCl): 740 nm and 742 nm
